According to patent US20150299233A1, “COMPOSITIONS AND METHODS COMPRISING RHENIUM FOR THE TREATMENT OF CANCERS” (Massachusetts Institute of Technology, priority 2014, published 2015):

How the values were obtained:
PC-3 = test: Cytotoxicity in the presence of necrostatin-1, PC-3 cells; format: cell-based, human; details: necrostatin-1 60 μM, t test p<0.05
Description: (§1) In order to determine the cell-killing mechanism of 1 and 2, cytotoxicity studies in the presence of apoptosis and necrosis inhibitors were conducted. […] The possibility that 1 and 2 induce necroptosis was then investigated. Necroptosis is a well-regulated mode of cell death that is different from unregulated necrosis and apoptosis. Unlike unregulated necrosis, which can be induced by H2O2 or heat, necroptosis generally involved the interaction of protein kinases, RIP1 and RIP3, to initiate cell disintegration. This process can be blocked by necrostatin-1, a potent RIP1 kinase inhibitor. To determine whether 1 and 2 induced necroptosis and/or uncontrolled necrosis, cytotoxicity studies were conducted in the presence of necrostatin-1 (60 μM) and IM-54 (10 μM), an inhibitor of H2O2-induced necrosis. […] Therefore, 1- and 2-induced cell death relies on RIP1-RIP3 complex formation and not on the expression levels of the individual protein kinases. RIP1 can also form a cytosolic complex with Fas-associated death domain (FADD) and caspase 8, known as a ripoptosome, to initiate apoptosis (through caspase 8 cleavage).
(§2) Cytotoxicity MTT Assay. […] Cells (2×10^3 cells/well) were seeded in a 96-well plate. […] The absorbance of the solution wells was read at 550 nm. Absorbance values were normalized to DMSO-containing control wells and plotted as the concentration of test compound versus % cell viability. […]

[1] = tested on: MCF-7 (breast adenocarcinoma); test: MTT cytotoxicity assay, MCF-7 cells; format: cell-based, human; details: Table 2; cisplatin-resistant cell line; 72 h exposure
[2] = tested on: PC-3 (prostate adenocarcinoma); test: MTT cytotoxicity assay, PC-3 cells; format: cell-based, human; details: Table 2; cisplatin-resistant cell line; 72 h exposure
A549 cells [3] = test: Propidium iodide uptake, flow cytometry; format: cell-based, human; details: for PI uptake versus untreated control cells: 20 μM for 12 h; for effect of N-acetylcysteine pretreatment on induced PI uptake: N-acetylcysteine 3 mM for 1 h; for effect of necrostatin-1 on mediated PI uptake: necrostatin-1 60 μM
Description: Intracellular ROS production and mitochondrial membrane depletion contribute to necroptosis. Cells undergoing necroptosis display necrosis-like morphological features such as loss of cell membrane integrity, increase in organelle and cell volume (oncosis), and intact nuclear membrane. To further test whether 1- and 2-treatment can trigger necroptosis, Hoechst 33258/propidium iodide (PI) double staining was carried out to determine nuclear membrane morphology and integrity. Hoechst 33258 is a DNA minor groove binder that is routinely used to visualize the nucleus without the need for cell permeabilization. When used without cell permeabilization agents, PI stains the nuclei of necrotic cells. Early-stage apoptotic and normal cells maintain cell membrane integrity and thus are not stained by PI. A549 cells were treated with 1 and 2 (20 μM for 12 h), incubated with Hoechst 33258 and PI, and imaged using a fluorescence microscope.
Propidium Iodide Uptake. Untreated and treated A549 cells (1.5×10^6 cells/well) grown in six-well plates were washed with PBS (1 mL×3), harvested, incubated with PI (5 μM), and analyzed by using the FACSCalibur-HTS flow cytometer (BD Biosciences) (20 000 events per sample were acquired). The FL2 channel was used to assess intracellular PI uptake. Cell populations were analyzed using the FlowJo software (Tree Star).

HT-29 = test: Cytotoxicity in the presence of necrostatin-1, HT-29 cells; format: cell-based, human; details: necrostatin-1 60 μM, t test p<0.05
Description: as §1, §2

[4] = tested on: HCT116 p53+/+ and HCT116 p53−/− cells; test: Cytotoxicity in HCT116 p53+/+ versus p53-/- cells; format: cell-based; details: 72 h, FIG. 3B
Description: (PARP-1). PARP-1 is a nuclear enzyme that is involved in DNA repair and transcriptional regulation. DNA damage can trigger PARP-1 activity, resulting in ATP and NAD depletion and bioenergetics- mediated cell death. To determine whether PARP-1 activity is a factor in 1- and 2-mediated cell death, cytotoxicity assays were conducted with wild-type mouse embryonic fibroblast cells (MEFs PARP-1+/+) and the corresponding PARP-1-null cells (MEFs PARP-1−/−). […] Recently, p53 has also been reported to play a role in necroptosis. p53 induces cathepsin Q, a lysosomal protease that cooperates with ROS to execute necrosis. To investigate whether p53 might play a role in 1- and 2-mediated necroptosis, cytotoxicity studies were conducted with HCT116 p53^+/+ nd HCT116 p53^−/− cells.
Cell Cycle Analysis. To gain a more complete understanding of the cellular response evoked, DNA-flow cytometric studies were conducted to determine the effect of 1 and 2 on the cell cycle. A549 cells were treated with 1 or 2 (2 μM), and the cell cycle was determined over the course of 72 h. […] Upon further incubation (72 h), large populations of cell debris were detected (32%), indicative of cell death. […]
Cytotoxicity MTT Assay. […] The absorbance of the solution wells was read at 550 nm. Absorbance values were normalized to DMSO-containing control wells and plotted as the concentration of test compound versus % cell viability. […]

A549 cells [5] = test: JC-1 mitochondrial membrane potential assay; format: cell-based, human; details: for JC-1 green fluorescence versus untreated cells (mitochondrial membrane disruption): 1, 2, shikonin 20 μM for 12 h, CCCP 5 μM for 12 h
Description: The effect of 1 and 2 on the mitochondrial membrane potential was assessed by flow cytometry, using the JC-1 assay (5,5′,6,6′-tetrachloro-1,1′,3,3′-tetraethylbenzimidazolyl carbo-cyanine iodide). JC-1 is a cationic lipophilic dye that localizes in the mitochondria of healthy cells as red-emitting aggregates. If the mitochondrial membrane potential is disrupted, JC-1 forms green-emitting monomers. […] This could explain the high residual toxicity (>1 μM) observed for A549 cells co-incubated with the rhenium complexes (1 and 2) and necrostatin-1 (FIG. 1B).
JC-1 Assay. The JC-1 Mitochondrial Membrane Potential Assay Kit (Cayman) was used. The manufacturer's protocol was followed to carry out this experiment. Briefly, to untreated and treated A549 cells (1.5×10^6 cells/well) grown in six-well plates was added the JC-1 staining solution (100 μL/mL of cell media). The cells were incubated for 30 min, harvested, and analyzed by using the FACSCalibur-HTS flow cytometer (BD Biosciences) (20 000 events per sample were acquired).The FL1 channel was used to assess mitochondrial depolarization. Cell populations were analyzed using the FlowJo software (Tree Star).

Row | SMILES | effect of co-incubation with necrostatin-1 on toxicity, PC-3 (PC-3) | IC50 [1] [nM] | IC50 [2] [nM] | PI uptake versus untreated control cells (A549 cells [3]) | effect of N-acetylcysteine pretreatment on induced PI uptake (A549 cells [3]) | effect of necrostatin-1 on mediated PI uptake (A549 cells [3]) | effect of co-incubation with necrostatin-1 on toxicity, HT-29 (HT-29) | potency in HCT116 p53+/+ compared with HCT116 p53−/− [4] | induced mitochondrial membrane depletion with necrostatin-1 (A549 cells [5]) | JC-1 green fluorescence versus untreated cells (mitochondrial membrane disruption) (A549 cells [5])
1 | C[O][Re](=[O])([Cl])[Cl].c1ccc(-c2ccnc3c2ccc2c(-c4ccccc4)ccnc23)cc1 [Compound 1, [ReO(OMe)(4,7-diphenyl-1,10-phenanthroline)-Cl2]] | markedly decreased the toxicity | 285 ± 35 | 270 ± 14 | higher PI uptake | significantly decreased | could block | markedly decreased the toxicity | statistically similar | amplified | increased green fluorescence
2 | C[O][Re-2]1(=[O])([Cl])([Cl])[n+]2cc(C)c(C)c3ccc4c(C)c(C)c[n+]1c4c32 [Compound 2, [ReO(OMe)(3,4,7,8-tetramethyl-1,10-phenanthroline)Cl2]] | markedly decreased the toxicity | 805 ± 21 | 780 ± 10 | higher PI uptake | significantly decreased | could block | markedly decreased the toxicity | statistically similar | amplified | increased green fluorescence
